According to patent publication US11899025B2, “Pharmaceutical composition for preventing or treating neurodegenerative diseases comprising COX2 acetylating agent as active ingredient” (KYUNGPOOK NATIONAL UNIVERSITY INDUSTRY-ACADEMIC COOPERATION …, priority 2018, dated 2024):

Columns and labels:
[1] = test system: APP/PS1 mice; test: Alzheimer's animal model (APP/PS1 mice): immunofluorescence, Thioflavin S, Morris Water Maze; assay type: in vivo, mouse; conditions: 7-month-old APP/PS1 mice, 5 mg/kg N-acetyl sphingosine, 1 mg/kg FTY720 or 3 uM S1P daily for 4 weeks, intraperitoneal
Text: It has been approved for mouse experiments by the Kyungpook National University Institutional Animal Care and Use Committee (IACUC). A transgenic mouse line overexpressing APPswe (hAPP695swe) or PS1 (presenilin-1M146V) based on C57BL/6 mice (Charles River, UK) was used. [Hereinafter, APP mouse: mouse overexpressing APPswe, PS1 mouse: mouse overexpressing presenilin-1M146V; GlaxoSmithKline]. As an Alzheimer's (AD) animal model, SphK1 tg (SphK1 gene overexpressing mouse) was crossed with APP mice and APP/PS1 mice to prepare APP/PS1/SphK1 tg mice. Niemanpick (NP-C) animal model, Balb/C (Orient, Wild type), NPC mutant mouse lacking NPC1 gene (Provided by Riken, Japan, NP-C mice; less weight than normal mice of the same age, and severe motor function loss from 4 to 6 weeks of age, limb tremors and seizures appear, and lifespan is approximately 9 to 10 weeks. Is) was used. As an animal model for amyotrophic lateral sclerosis (ALS), a transgenic mouse (FUS) line overexpressing RUS R521C based on C57BL/6 mice (Charles River, UK) was used.
After fixing the cerebral and hippocampus of the mouse, anti-20G10 (mouse, 1:1000) against amyloid-β (Aβ) 42 and anti-G30 (rabbit, 1:1000) against Aβ 40, anti-MAP2 (chicken, 1:2000), anti-Synaptophysin (mouse, 1:100), anti-Synapsin1 (rabbit, 1:500), anti-PSD95 (mouse, 1:100), anti-Iba-1 (rabbit, 1:500), Anti-GFAP (rabbit, 1:500) was cultured together. The site was analyzed using a laser scanning confocal microscope or Olympus BX51 microscope equipped with Fluoview SV1000 imaging software (Olympus FV1000, Japan). Metamorph software (Molecular Devices) was used to quantify the percentage of the area of the stained area relative to the area of the total tissue.
In order to confirm the potential effect on learning and memory, MWM (Morris water maze) and fear conditioning experiments were performed. MWM learned the task 4 times a day for 10 days for the mice, the platform was removed on the 11th day, and a probe trial was performed. On the first day of Fear conditioning, the mice were placed in a conditioning chamber, and sound stimulation (10 kHz, 70 dB) and electrical stimulation (0.3 mA, 1 s) were given. On the second day, memory for the space was checked without stimulation in the same conditioning chamber as on the first day, and on the third day, a memory test for fear was performed when only sound stimulation was given in another conditioning chamber. An open field test was performed to evaluate motor ability and immediate activity. In the open field test, the mice were placed in a square box for 10 minutes to measure the overall exercise power, time, and distance.
In order to measure the neuroinflammatory resolution factor, after culturing neurons from mouse cerebrum, CM was prepared by treatment with 10 nM N-acetyl sphingosine 1 phosphate (Toronto Research chemicals, C262710) and N-acetyl sphingosine (Sigma, 01912). For COX2 acetylation analysis, neurons were cultured from mouse cerebrum and then treated with 2 uCi [^14C]N-acetyl sphingosine (ARC, ARC1024). In addition, for in vivo experiments, 7-month-old APP/PS1 mice were injected with 5 mg/kg N-acetyl sphingosine (Sigma, 01912), 1 mg/kg FTY720 and 3 uM S1P daily for 4 weeks via intraperitoneal injection. 1 month-old NPC mice were injected with 5 mg/kg N-acetyl sphingosine (Sigma, 01912) and 2-month-old FUS mice with 30 mg/kg N-acetyl sphingosine (Sigma, 01912) daily for 4 weeks via subcutaneous injection.
The present inventors confirmed AD lesions by injecting N-acetyl sphingosine, one of the COX2 acetylating agents identified through the above experiment, into an APP/PS1 animal model. First, in order to determine the effect of N-acetyl sphingosine on the neuroinflammatory response by secreting neuroinflammatory resolution factor, changes in microglia and astrocytes were observed. […]

[2] = biological target: T1, COX2 (Homo sapiens, UniProt P35354); test: LC-MS/MS identification of the COX2 acetylation site; assay type: biochemical; conditions: FIG. 8d
T1 sequence (P35354 18-604): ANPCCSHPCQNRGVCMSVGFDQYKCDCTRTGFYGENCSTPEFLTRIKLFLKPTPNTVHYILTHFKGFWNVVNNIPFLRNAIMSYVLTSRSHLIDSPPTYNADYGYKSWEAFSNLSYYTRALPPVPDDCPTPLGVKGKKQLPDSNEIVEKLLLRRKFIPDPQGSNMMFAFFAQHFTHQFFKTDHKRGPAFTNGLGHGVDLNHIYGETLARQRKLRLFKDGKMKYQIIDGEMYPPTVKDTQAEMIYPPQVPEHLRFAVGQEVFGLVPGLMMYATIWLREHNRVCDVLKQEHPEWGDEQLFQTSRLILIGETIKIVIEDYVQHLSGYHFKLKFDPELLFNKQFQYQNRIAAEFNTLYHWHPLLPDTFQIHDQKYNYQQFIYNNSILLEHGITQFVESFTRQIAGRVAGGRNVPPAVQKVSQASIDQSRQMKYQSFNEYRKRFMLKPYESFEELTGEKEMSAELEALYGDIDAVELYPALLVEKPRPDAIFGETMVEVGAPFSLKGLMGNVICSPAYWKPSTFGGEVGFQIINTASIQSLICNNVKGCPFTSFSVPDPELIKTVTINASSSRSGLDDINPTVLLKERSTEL
Protocol: To confirm the acetylation site of COX2, the COX2 enzyme was precipitated with trichroloacetic acid (Merck) and dried. The dried extract was resuspended in 10 μL of 5M urea solution, and 0.1M ammonium bicarbonate buffer was incubated at 37° C. with 1 μg trypsin (Promega) for 16 hours. Then, the sample was treated with 1M DTT (GE Healthcare) at room temperature for 1 hour and then alkylated with 1M iodoacetamide (Sigma) for 1 hour. Protein samples were loaded onto a ZORBAX 300SB-C18 column for sequencing. Peptides were identified with BioTools 3.2 SR5 (Bruker Daltonics).
In addition, it was confirmed that serine 565 (S565) against the COX2 peptide 560-[…]-575 was acetylated in the presence of N-acetyl sphingosine (FIG. 8d).

acetylation of serine 565 (S565) of COX2 peptide 560-GCPFTSFSVPDPELIK-575 [2]: acetylated
SMILES: CCCCCCCCCCCCC/C=C/[C@@H](O)[C@H](CO)NC(C)=O [N-acetyl sphingosine]
microglia (Iba1) in brain cortex vs APP/PS1 mice ([1]; FIG. 9a): remarkable decrease | astrocytes (GFAP) in brain cortex vs APP/PS1 mice ([1]; FIG. 9b): remarkable decrease | amount of Aβ / Aβ deposition (Thioflavin S) vs APP/PS1 mice ([1]; FIG. 9c): significantly lower | memory and cognition (Morris Water Maze) vs APP/PS1 mice ([1]; FIG. 9d): improved
